Laboratory results reported in PubChem BioAssay AID1919004 (Molecular Pharmacology Branch, DTP, NCI, 2023).

Tested on: 883617-216-R-J1-PDC complex spheroids, growth, % test/control
Assay: Anticancer human tumor 883617-216-R-J1-PDC patient-derived bladder carcinoma cell line growth inhibition [AhR]
Details: for IC50: curve of first compound; for viability, T/C: stronger effect = lower value
Method in brief: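 Spheroids combined tumor cells with HUVEC endothelial cells and human MSCs as stroma. AhR antagonists were paired with standard or investigational drugs, each dosed in half-log steps down from near clinical Cmax, or from 10 microM where Cmax was unknown.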

[1] = second compound 0.1 µM, first compound 0.0316 µM
[2] = second compound 0.1 µM, first compound 0.1 µM
[3] = second compound 0.1 µM, first compound 0.316 µM
[4] = second compound 0.1 µM, first compound 1 µM
[5] = second compound 0.1 µM, first compound 3.16 µM
[6] = second compound 0.1 µM, first compound 10 µM
[7] = second compound 0.316 µM, first compound 0.0316 µM
[8] = second compound 0.316 µM, first compound 0.1 µM
[9] = second compound 0.316 µM, first compound 0.316 µM
[10] = second compound 0.316 µM, first compound 1 µM
[11] = second compound 0.316 µM, first compound 3.16 µM
[12] = second compound 0.316 µM, first compound 10 µM
[13] = second compound 1 µM, first compound 0.0316 µM
[14] = second compound 1 µM, first compound 0.1 µM
[15] = second compound 1 µM, first compound 0.316 µM
[16] = second compound 1 µM, first compound 1 µM
[17] = second compound 1 µM, first compound 3.16 µM
[18] = second compound 1 µM, first compound 10 µM
[19] = second compound 3.16 µM, first compound 0.0316 µM
[20] = second compound 3.16 µM, first compound 0.1 µM
[21] = second compound 3.16 µM, first compound 0.316 µM
[22] = second compound 3.16 µM, first compound 1 µM
[23] = second compound 3.16 µM, first compound 3.16 µM
[24] = second compound 3.16 µM, first compound 10 µM
[25] = second compound 10 µM, first compound 0.0316 µM
[26] = second compound 10 µM, first compound 0.1 µM
[27] = second compound 10 µM, first compound 0.316 µM
[28] = second compound 10 µM, first compound 1 µM
[29] = second compound 10 µM, first compound 3.16 µM
[30] = second compound 10 µM, first compound 10 µM
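Note: exposure lasted 7 days after dosing on day 3 of spheroid growth.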

IC50 (second compound 0.1 µM)	IC50 (second compound 0.316 µM)	IC50 (second compound 1 µM)	IC50 (second compound 3.16 µM)	IC50 (second compound 10 µM)	SMILES	viability, T/C [1]	viability, T/C [2]	viability, T/C [3]	viability, T/C [4]	viability, T/C [5]	viability, T/C [6]	viability, T/C [7]	viability, T/C [8]	viability, T/C [9]	viability, T/C [10]	viability, T/C [11]	viability, T/C [12]	viability, T/C [13]	viability, T/C [14]	viability, T/C [15]	further results
1570 nM	1730 nM	1370 nM	1530 nM	1580 nM	O=C(C=Cc1cccc(S(=O)(=O)Nc2ccccc2)c1)NO + Cc1ccccc1N=Nc1ccc(NC(=O)c2ccnn2C)c(C)c1	86.6%	80%	77.1%	56.6%	36.6%	2.17%	89.2%	88.1%	77.6%	68%	32%	2.44%	76.7%	96.8%	69.1%	viability, T/C [16]: 56.8%; viability, T/C [17]: 31.2%; viability, T/C [18]: 1.92%; viability, T/C [19]: 70.9%; viability, T/C [20]: 87.2%; viability, T/C [21]: 73.3%; viability, T/C [22]: 62.9%; viability, T/C [23]: 28.2%; viability, T/C [24]: 1.87%; viability, T/C [25]: 74.6%; viability, T/C [26]: 76.3%; viability, T/C [27]: 68.1%; viability, T/C [28]: 63.1%; viability, T/C [29]: 32%; viability, T/C [30]: 2.57%
> 10000 nM	> 10000 nM	> 10000 nM	> 10000 nM	> 10000 nM	Nc1ccn(C2OC(CO)C(O)C2(F)F)c(=O)n1 (stereo not given) + CC(CO)NC(=O)c1cc(-c2ccc(Cl)cc2)nn(-c2cnn(C)c2)c1=O	82.9%	91.6%	95.4%	88.3%	58.7%	85.3%	82.2%	99%	97.8%	84.8%	85.8%	86.3%	96.8%	76.4%	113%	viability, T/C [16]: 77.7%; viability, T/C [17]: 75.7%; viability, T/C [18]: 72.1%; viability, T/C [19]: 81%; viability, T/C [20]: 91.8%; viability, T/C [21]: 108%; viability, T/C [22]: 52.7%; viability, T/C [23]: 63.4%; viability, T/C [24]: 63.5%; viability, T/C [25]: 63.2%; viability, T/C [26]: 124%; viability, T/C [27]: 87%; viability, T/C [28]: 72.7%; viability, T/C [29]: 78.2%; viability, T/C [30]: 76.6%
788 nM	1500 nM	1910 nM	10000 nM	1170 nM	NS(=O)(=O)OCC1CC(n2ccc3c(NC4CCc5ccccc54)ncnc32)CC1O (stereo not given) + CC(CO)NC(=O)c1cc(-c2ccc(Cl)cc2)nn(-c2cnn(C)c2)c1=O	96.4%	90.6%	87.1%	40.6%	21%	27.2%	55%	94%	63.4%	61.5%	28.2%	29.2%	64.6%	55.6%	109%	viability, T/C [16]: 67.6%; viability, T/C [17]: 30.7%; viability, T/C [18]: 42%; viability, T/C [19]: 75.8%; viability, T/C [20]: 108%; viability, T/C [21]: 55.6%; viability, T/C [22]: 65.9%; viability, T/C [23]: 27%; viability, T/C [24]: 72.7%; viability, T/C [25]: 72.3%; viability, T/C [26]: 109%; viability, T/C [27]: 80.1%; viability, T/C [28]: 51.1%; viability, T/C [29]: 32.4%; viability, T/C [30]: 16.4%
